ChEMBL document CHEMBL5365445, “Discovery of a photosensitizing PI3K inhibitor for tumor therapy: Design, synthesis and in vitro biological evaluation” (Bioorg Med Chem Lett, 2023)
Active and inactive are the calls of the source. The rule behind the calls is not given here.

Legend:
[1] = target: Phosphatidylinositol 4,5-bisphosphate 3-kinase catalytic subunit gamma isoform (Homo sapiens, UniProt P48736); assay: Inhibition of PI3Kgamma (unknown origin)
[2] = Photorelease activity in PBS assessed as N-(2-chloro-5-(1H-pyrazolo[3,4-b]pyridin-5-yl)pyridin-3-yl) benzene sulfonamide release irradiated with 254 nm incubated for 12 mins by HPLC analysis
[3] = test system: B16; assay: Induction of apoptosis in mouse B16 cells assessed as early apoptotic cells at 10 uM incubated for 48 hrs irradiated with 365 nm for 4 mins by annexin-V/propidium iodide staining based flow cytometry analysis (reference value: 2.38 %); assay type: functional
[4] = test system: B16; assay: Induction of apoptosis is in mouse B16 cells assessed as necrotic cells at 10 uM incubated for 48 hrs by annexin-V/propidium iodide staining based flow cytometry analysis (reference value: 0.01 %); assay type: functional
[5] = test system: B16; assay: Induction of apoptosis in mouse B16 cells assessed as necrotic cells at 15 uM incubated for 48 hrs irradiated with 365 nm for 4 mins by annexin-V/propidium iodide staining based flow cytometry analysis (reference value: 0.07 %); assay type: functional
[6] = test system: B16; assay: Induction of apoptosis in mouse B16 cells assessed as early apoptotic cells at 15 uM incubated for 48 hrs by annexin-V/propidium iodide staining based flow cytometry analysis (reference value: 1.39 %); assay type: functional
[7] = test system: B16; assay: Induction of apoptosis in mouse B16 cells assessed as necrotic cells at 10 uM incubated for 48 hrs irradiated with 365 nm for 4 mins by annexin-V/propidium iodide staining based flow cytometry analysis (reference value: 0.07 %); assay type: functional
[8] = target: T1, Phosphatidylinositol 3-kinase (Mus musculus) (UniProt P26450+P42337); assay: Inhibition of PI3K in mouse B16 cells assessed as reduction in phosphorylation of AKT at T308 residue at 10 to 15 uM incubated for 24 hrs irradiated with 365 nm uv light for 4 min by Western blot analysis; assay type: cell-based; details: dose 10-15 µM
T1 sequence (P26450 whole entry, looked up): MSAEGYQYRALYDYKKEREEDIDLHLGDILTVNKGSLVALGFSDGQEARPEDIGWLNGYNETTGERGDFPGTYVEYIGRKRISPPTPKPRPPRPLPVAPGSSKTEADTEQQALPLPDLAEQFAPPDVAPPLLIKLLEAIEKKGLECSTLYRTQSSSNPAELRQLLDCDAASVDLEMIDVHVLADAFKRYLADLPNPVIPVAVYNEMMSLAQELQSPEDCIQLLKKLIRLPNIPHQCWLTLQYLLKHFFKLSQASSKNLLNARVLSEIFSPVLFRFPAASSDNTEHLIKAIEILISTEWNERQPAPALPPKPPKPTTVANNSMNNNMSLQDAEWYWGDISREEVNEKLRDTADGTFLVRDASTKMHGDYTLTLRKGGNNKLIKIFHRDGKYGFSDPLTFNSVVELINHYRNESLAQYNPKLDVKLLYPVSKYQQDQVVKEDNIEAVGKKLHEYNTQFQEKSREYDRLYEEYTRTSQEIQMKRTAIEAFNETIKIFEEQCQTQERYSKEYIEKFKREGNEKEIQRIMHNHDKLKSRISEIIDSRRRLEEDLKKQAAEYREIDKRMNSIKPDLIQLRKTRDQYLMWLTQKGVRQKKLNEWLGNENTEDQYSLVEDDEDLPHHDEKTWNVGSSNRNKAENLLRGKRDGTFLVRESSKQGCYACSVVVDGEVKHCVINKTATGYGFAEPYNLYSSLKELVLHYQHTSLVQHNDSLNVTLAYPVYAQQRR
T1 sequence (P42337 whole entry, looked up): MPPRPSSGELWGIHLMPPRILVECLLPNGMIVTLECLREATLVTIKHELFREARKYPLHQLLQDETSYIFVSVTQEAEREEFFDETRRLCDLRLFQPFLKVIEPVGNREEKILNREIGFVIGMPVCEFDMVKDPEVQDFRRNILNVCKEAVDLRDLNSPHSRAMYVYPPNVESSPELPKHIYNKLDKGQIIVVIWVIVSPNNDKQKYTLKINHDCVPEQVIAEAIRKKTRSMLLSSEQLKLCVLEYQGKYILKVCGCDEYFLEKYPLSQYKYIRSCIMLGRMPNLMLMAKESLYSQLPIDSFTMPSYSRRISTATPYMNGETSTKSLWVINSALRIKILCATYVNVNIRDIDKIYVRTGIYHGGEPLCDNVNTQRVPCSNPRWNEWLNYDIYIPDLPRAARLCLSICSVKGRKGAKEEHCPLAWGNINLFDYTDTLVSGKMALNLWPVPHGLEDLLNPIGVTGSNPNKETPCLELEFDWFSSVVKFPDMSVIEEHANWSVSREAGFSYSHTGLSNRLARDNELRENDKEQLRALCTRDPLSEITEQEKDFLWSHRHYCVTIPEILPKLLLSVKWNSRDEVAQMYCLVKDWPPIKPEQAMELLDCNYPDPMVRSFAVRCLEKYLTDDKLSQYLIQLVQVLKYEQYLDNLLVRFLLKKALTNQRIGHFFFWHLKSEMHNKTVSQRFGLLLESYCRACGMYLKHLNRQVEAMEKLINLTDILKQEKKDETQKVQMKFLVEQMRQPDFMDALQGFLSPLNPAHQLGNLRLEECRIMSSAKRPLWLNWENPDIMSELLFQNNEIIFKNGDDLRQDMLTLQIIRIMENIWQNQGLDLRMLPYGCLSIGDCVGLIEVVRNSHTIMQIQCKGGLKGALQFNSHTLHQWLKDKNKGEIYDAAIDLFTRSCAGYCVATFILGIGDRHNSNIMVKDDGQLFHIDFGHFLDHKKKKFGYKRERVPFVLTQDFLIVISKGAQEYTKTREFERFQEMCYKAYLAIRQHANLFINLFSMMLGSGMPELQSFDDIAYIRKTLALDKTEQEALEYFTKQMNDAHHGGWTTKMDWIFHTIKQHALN

[9] = test system: B16; assay: Induction of apoptosis in mouse B16 cells assessed as viable at 10 uM incubated for 48 hrs by annexin-V/propidium iodide staining based flow cytometry analysis (reference value: 97.4 %); assay type: functional
[10] = test system: B16; assay: Induction of apoptosis in mouse B16 cells assessed as viable cells at 15 uM incubated for 48 hrs irradiated with 365 nm for 4 mins by annexin-V/propidium iodide staining based flow cytometry analysis (reference value: 96.7 %); assay type: functional; details: B16, light or radiation study, read-out: Activity
[11] = test system: B16; assay: Induction of cell cycle arrest in mouse B16 cells assessed as cells accumulation at G2/M phase at 10 to 15 uM incubated for 24 hrs by flow cytometry analysis; assay type: functional, cell-based; details: dose 10-15 µM
[12] = test system: B16; assay: Induction of apoptosis in mouse B16 cells assessed as viable cells at 10 uM incubated for 48 hrs irradiated with 365 nm for 4 mins by annexin-V/propidium iodide staining based flow cytometry analysis (reference value: 96.7 %); assay type: functional; details: B16, light or radiation study, read-out: Activity
[13] = test system: B16; assay: Induction of apoptosis in mouse B16 cells assessed as viable at 15 uM incubated for 48 hrs by annexin-V/propidium iodide staining based flow cytometry analysis (reference value: 97.4 %); assay type: functional
[14] = test system: B16; assay: Antiproliferative activity against mouse B16 cells assessed as reduction in cell viability incubated for 48 hrs irradiated with 365 nm uv light for 4 min by CCK-8 assay; assay type: functional, cell-based; details: B16, light or radiation study
[15] = target: T1, Phosphatidylinositol 3-kinase (Mus musculus); assay: Inhibition of PI3K in mouse B16 cells assessed as reduction in phosphorylation of AKT at T308 residue incubated for 24 hrs by Western blot analysis; assay type: cell-based; details: dose 10-15 µM
[16] = test system: B16; assay: Induction of apoptosis is in mouse B16 cells assessed as late apoptotic cells at 10 uM incubated for 48 hrs by annexin-V/propidium iodide staining based flow cytometry analysis (reference value: 1.15 %); assay type: functional
[17] = test system: B16; assay: Induction of cell cycle arrest in mouse B16 cells assessed as cells accumulation at G2/M phase at 10 to 15 uM incubated for 24 hrs irradiated with 365 nm for 4 mins by flow cytometry analysis; assay type: functional, cell-based; details: dose 10-15 µM
[18] = target: Phosphatidylinositol 4,5-bisphosphate 3-kinase catalytic subunit alpha isoform (Homo sapiens, UniProt P42336); assay: Inhibition of PI3Kalpha (unknown origin)
Chain of Phosphatidylinositol 4,5-bisphosphate 3-kinase catalytic subunit alpha isoform (P42336 whole entry, canonical isoform): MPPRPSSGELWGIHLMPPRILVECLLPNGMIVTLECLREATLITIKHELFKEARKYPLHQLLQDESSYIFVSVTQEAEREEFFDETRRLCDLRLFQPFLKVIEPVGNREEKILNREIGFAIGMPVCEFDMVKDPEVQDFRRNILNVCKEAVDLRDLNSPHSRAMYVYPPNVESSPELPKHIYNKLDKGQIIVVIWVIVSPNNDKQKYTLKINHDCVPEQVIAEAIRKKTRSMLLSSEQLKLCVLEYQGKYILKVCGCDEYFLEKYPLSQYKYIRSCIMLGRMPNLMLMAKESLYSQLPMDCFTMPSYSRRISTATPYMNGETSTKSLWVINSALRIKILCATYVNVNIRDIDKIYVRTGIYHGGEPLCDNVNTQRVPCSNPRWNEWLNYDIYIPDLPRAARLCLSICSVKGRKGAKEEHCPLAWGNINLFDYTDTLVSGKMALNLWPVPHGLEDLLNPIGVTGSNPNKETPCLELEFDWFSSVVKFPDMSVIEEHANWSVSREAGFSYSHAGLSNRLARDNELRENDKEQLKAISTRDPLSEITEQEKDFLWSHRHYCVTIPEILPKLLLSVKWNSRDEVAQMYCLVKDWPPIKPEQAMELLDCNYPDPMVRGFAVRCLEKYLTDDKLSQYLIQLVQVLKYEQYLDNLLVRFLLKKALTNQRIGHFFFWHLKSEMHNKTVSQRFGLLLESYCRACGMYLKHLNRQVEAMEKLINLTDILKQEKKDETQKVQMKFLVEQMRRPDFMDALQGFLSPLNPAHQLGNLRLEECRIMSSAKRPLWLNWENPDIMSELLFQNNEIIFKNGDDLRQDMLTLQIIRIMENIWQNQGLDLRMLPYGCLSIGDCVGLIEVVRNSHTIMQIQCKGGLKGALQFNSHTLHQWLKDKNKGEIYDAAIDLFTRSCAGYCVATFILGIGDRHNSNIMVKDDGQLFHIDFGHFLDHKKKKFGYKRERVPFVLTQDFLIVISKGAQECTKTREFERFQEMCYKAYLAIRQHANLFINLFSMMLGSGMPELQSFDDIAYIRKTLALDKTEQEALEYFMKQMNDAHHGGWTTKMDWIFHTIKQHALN

[19] = test system: B16; assay: Induction of apoptosis in mouse B16 cells assessed as early apoptotic cells at 15 uM incubated for 48 hrs irradiated with 365 nm for 4 mins by annexin-V/propidium iodide staining based flow cytometry analysis (reference value: 2.38 %); assay type: functional
[20] = target: T1, Phosphatidylinositol 3-kinase (Mus musculus); assay: Inhibition of PI3K in mouse B16 cells assessed as reduction in MCL-1 protein expression at 10 to 15 uM incubated for 24 hrs irradiated with 365 nm uv light for 4 min by Western blot analysis; assay type: cell-based; details: dose 10-15 µM
[21] = target: Phosphatidylinositol 4,5-bisphosphate 3-kinase catalytic subunit beta isoform (Homo sapiens, UniProt P42338); assay: Inhibition of PI3Kbeta (unknown origin)
Chain of Phosphatidylinositol 4,5-bisphosphate 3-kinase catalytic subunit beta isoform (P42338 whole entry, canonical isoform): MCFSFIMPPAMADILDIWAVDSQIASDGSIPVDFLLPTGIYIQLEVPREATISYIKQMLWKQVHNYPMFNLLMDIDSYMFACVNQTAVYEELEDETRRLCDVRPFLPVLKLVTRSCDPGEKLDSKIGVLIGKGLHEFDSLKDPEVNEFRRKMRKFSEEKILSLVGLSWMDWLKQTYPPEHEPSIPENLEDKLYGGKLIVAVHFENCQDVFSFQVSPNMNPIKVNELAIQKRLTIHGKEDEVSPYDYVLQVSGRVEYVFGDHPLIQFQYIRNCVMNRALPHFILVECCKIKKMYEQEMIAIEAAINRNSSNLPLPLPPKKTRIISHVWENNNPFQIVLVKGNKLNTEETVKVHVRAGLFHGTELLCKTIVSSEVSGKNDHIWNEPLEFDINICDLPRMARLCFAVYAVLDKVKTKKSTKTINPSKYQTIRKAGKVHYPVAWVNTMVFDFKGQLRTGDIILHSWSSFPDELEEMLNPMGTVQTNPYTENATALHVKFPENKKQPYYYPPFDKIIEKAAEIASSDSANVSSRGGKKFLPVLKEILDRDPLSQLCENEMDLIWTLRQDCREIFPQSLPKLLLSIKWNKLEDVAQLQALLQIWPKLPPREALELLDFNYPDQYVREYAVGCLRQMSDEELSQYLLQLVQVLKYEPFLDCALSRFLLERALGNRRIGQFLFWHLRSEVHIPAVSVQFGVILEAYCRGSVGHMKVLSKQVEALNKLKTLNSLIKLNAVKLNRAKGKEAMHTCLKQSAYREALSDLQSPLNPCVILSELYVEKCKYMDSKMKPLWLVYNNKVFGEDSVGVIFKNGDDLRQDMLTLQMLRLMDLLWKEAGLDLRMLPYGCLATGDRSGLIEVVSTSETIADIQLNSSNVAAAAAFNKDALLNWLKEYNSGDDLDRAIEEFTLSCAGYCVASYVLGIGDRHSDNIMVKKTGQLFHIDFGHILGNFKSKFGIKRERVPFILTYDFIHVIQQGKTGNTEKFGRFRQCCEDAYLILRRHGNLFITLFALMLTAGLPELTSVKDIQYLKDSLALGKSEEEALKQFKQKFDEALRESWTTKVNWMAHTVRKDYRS

[22] = Retention time of the compound under 365 nm UV light irradiation by HPLC analysis; assay type: physicochemical
[23] = test system: B16; assay: Induction of apoptosis is in mouse B16 cells assessed as necrotic cells at 15 uM incubated for 48 hrs by annexin-V/propidium iodide staining based flow cytometry analysis (reference value: 0.01 %); assay type: functional
[24] = test system: B16; assay: Induction of apoptosis in mouse B16 cells assessed as late apoptotic cells at 10 uM incubated for 48 hrs irradiated with 365 nm for 4 mins by annexin-V/propidium iodide staining based flow cytometry analysis (reference value: 0.84 %); assay type: functional
[25] = target: T1, Phosphatidylinositol 3-kinase (Mus musculus); assay: Inhibition of PI3K in mouse B16 cells assessed as reduction in phosphorylation of AKT at […] residue incubated for 24 hrs by Western blot analysis; assay type: cell-based; details: dose 10-15 µM
[26] = test system: B16; assay: Induction of apoptosis is in mouse B16 cells assessed as late apoptotic cells at 15 uM incubated for 48 hrs by annexin-V/propidium iodide staining based flow cytometry analysis (reference value: 1.15 %); assay type: functional
[27] = test system: B16; assay: Induction of apoptosis in mouse B16 cells assessed as early apoptotic cells at 10 uM incubated for 48 hrs by annexin-V/propidium iodide staining based flow cytometry analysis (reference value: 1.39 %); assay type: functional
[28] = target: T1, Phosphatidylinositol 3-kinase (Mus musculus); assay: Inhibition of PI3K in mouse B16 cells assessed as reduction in phosphorylation of AKT at […] residue at 10 to 15 uM incubated for 24 hrs irradiated with 365 nm uv light for 4 min by Western blot analysis; assay type: cell-based; details: dose 10-15 µM
[29] = test system: B16; assay: Induction of apoptosis in mouse B16 cells assessed as late apoptotic cells at 15 uM incubated for 48 hrs irradiated with 365 nm for 4 mins by annexin-V/propidium iodide staining based flow cytometry analysis (reference value: 0.84 %); assay type: functional
[30] = target: T2, Phosphatidylinositol 4,5-bisphosphate 3-kinase catalytic subunit delta isoform (Homo sapiens, UniProt O00329); assay: Inhibition of PI3Kdelta (unknown origin)
T2 sequence (O00329 whole entry): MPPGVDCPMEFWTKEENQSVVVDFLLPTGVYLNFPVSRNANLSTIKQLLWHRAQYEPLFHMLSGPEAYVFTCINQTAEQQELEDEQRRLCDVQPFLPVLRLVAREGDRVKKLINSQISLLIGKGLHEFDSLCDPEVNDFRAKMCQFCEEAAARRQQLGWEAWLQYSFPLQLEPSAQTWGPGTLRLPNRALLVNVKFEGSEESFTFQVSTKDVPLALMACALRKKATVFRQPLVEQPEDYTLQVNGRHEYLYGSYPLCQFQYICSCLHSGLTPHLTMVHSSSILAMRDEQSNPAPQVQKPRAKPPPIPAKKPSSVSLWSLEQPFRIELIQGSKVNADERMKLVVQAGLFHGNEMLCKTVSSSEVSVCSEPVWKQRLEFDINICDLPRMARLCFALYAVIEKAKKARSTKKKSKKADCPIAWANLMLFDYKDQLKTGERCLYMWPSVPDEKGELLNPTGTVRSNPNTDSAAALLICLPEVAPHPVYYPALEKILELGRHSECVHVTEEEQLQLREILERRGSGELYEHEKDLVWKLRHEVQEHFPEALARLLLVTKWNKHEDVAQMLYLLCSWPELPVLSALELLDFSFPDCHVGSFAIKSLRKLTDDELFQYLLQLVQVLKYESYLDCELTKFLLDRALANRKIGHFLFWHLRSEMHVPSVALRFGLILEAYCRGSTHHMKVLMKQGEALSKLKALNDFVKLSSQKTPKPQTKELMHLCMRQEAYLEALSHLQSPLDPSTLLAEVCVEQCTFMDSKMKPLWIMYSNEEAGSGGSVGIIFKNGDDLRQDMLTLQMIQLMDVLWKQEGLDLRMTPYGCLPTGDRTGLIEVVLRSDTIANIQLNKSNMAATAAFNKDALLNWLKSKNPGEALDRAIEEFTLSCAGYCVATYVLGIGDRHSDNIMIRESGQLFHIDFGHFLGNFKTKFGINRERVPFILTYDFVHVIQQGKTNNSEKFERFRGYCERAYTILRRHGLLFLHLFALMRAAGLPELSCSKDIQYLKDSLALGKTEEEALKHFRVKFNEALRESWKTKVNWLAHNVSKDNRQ

[31] = test system: B16; assay: Induction of apoptosis in mouse B16 cells assessed as increase in apoptotic cells at 10 uM incubated for 48 hrs by annexin-V/propidium iodide staining based flow cytometry analysis; assay type: functional
[32] = target: T1, Phosphatidylinositol 3-kinase (Mus musculus); assay: Inhibition of PI3K in mouse B16 cells assessed as reduction in MCL-1 protein expression incubated for 24 hrs by Western blot analysis; assay type: cell-based; details: dose 10-15 µM
[33] = target: T1, Phosphatidylinositol 3-kinase (Mus musculus); assay: Inhibition of PI3K in mouse B16 cells assessed as reduction in phosphorylation of AKT at T308 residue at 10 to 15 uM incubated for 24 hrs by Western blot analysis; assay type: cell-based; details: dose 10-15 µM
[34] = target: T1, Phosphatidylinositol 3-kinase (Mus musculus); assay: Inhibition of PI3K in mouse B16 cells assessed as reduction in MCL-1 protein expression at 10 to 15 uM incubated for 24 hrs by Western blot analysis; assay type: cell-based; details: dose 10-15 µM
[35] = target: T1, Phosphatidylinositol 3-kinase (Mus musculus); assay: Inhibition of PI3K in mouse B16 cells assessed as reduction in phosphorylation of AKT at […] residue at 10 to 15 uM incubated for 24 hrs by Western blot analysis; assay type: cell-based; details: dose 10-15 µM

Chain of Phosphatidylinositol 4,5-bisphosphate 3-kinase catalytic subunit gamma isoform (P48736 whole entry, canonical isoform): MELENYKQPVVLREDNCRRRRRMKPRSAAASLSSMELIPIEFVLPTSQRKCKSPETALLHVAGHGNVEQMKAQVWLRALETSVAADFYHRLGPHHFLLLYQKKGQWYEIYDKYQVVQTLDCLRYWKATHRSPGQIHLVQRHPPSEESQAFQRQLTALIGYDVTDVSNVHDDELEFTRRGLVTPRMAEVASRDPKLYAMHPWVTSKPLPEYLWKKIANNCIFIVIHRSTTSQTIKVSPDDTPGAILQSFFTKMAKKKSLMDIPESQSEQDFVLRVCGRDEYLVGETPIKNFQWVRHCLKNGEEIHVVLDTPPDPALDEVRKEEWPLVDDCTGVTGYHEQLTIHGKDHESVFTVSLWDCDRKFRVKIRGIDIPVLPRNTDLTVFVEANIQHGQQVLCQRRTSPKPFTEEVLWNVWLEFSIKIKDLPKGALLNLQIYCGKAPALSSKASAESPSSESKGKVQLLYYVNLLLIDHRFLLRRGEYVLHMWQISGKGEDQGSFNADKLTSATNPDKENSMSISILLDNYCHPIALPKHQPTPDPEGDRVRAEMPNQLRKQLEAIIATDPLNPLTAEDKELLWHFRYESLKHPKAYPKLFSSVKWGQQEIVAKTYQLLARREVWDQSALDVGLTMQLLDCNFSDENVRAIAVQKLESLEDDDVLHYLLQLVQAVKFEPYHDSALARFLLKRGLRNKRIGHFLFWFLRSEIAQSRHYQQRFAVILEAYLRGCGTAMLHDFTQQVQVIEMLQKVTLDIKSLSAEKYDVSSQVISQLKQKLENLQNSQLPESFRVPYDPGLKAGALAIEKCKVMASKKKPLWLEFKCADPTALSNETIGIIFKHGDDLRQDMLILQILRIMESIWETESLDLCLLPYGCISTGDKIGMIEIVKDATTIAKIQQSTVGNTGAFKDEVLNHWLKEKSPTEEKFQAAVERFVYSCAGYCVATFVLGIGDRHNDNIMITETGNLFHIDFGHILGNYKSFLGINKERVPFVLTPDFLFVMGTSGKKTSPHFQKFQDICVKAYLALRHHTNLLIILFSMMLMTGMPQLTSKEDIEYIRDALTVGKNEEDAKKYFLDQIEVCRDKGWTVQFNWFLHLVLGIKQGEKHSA

COc1cc(COC(=O)n2ncc3cc(-c4cnc(Cl)c(NS(=O)(=O)c5ccccc5)c4)cnc32)c([N+](=O)[O-])cc1OC
IC50 [1]: 0.084 µM
Drug metabolism [2]: > 98%
Activity [3]: 8.04%
Activity [4]: 0%
Activity [5]: 1.27%
Activity [6]: 7.13%
Activity [7]: 0%
inhibition [8]: Active
Activity [9]: 95.6%
viability at 15 µM [10]: 69.6%
Activity [11]: Active
viability at 10 µM [12]: 88.5%
Activity [13]: 88.1%
IC50 [14]: 8.8 µM
inhibition [15]: Dose-Dependent Effect
Activity [16]: 1.25%
Activity [17]: Active
IC50 [18]: 0.043 µM
Activity [19]: 14.4%
inhibition [20]: Active
IC50 [21]: 0.083 µM
Retention_time [22]: 10.4 min
Activity [23]: 1.3%
Activity [24]: 3.49%
inhibition [25]: Dose-Dependent Effect
Activity [26]: 3.42%
Activity [27]: 3.16%
inhibition [28]: Active
Activity [29]: 14.7%
IC50 [30]: 0.014 µM
Activity [31]: <10%
inhibition [32]: Dose-Dependent Effect

O=S(=O)(Nc1cc(-c2cnc3[nH]ncc3c2)cnc1Cl)c1ccccc1
inhibition [33]: Active
inhibition [34]: Active
inhibition [35]: Active
Retention_time [22]: 7.9 min
